Drawing on ChEMBL document CHEMBL3272309, “Potential central nervous system antitumor agents. Aziridinylbenzoquinones. 1” (J Med Chem, 1976), this text covers Activity and T/C for one molecule.

Holding throughout (assay type): functional
Assay [1] concerns Lewis lung carcinoma cell line. Briefly: Antitumor activity against mouse LLC cells allografted in mouse assessed as change in body weight at 1 mg/kg, ip qd administered from day 5 to 15 post sc tumor-implantation measured on day 5 relative to control. Particulars: route subcutaneous.
The test system of assay [2] is P388. Briefly: Antitumor activity against mouse P388 cells allografted in mouse assessed as change in body weight at 0.78 mg/kg, ip qd administered from day 1 to 9 post intracerebral tumor-implantation measured on day 5 relative to control. Particulars: route intraperitoneal.
Assay [3] can be described thus: Antitumor activity against mouse ependymoblastoma cells allografted in mouse assessed as mouse survival at 0.25 mg/kg, ip qd administered from day 1 to 5 post intracerebral tumor-implantation relative to control. The note with it: route intraperitoneal.
For assay [4], the system named is P388. Briefly: Antitumor activity against mouse P388 cells allografted in mouse assessed as change in body weight at 6.25 mg/kg, ip qd administered from day 1 to 9 post intracerebral tumor-implantation measured on day 5 relative to control. The note with it: route intraperitoneal.
Assay [5] has as its system L1210. Briefly: Antitumor activity against mouse L1210 cells allografted in mouse assessed as change in body weight at 4.6 mg/kg, ip qd administered from day 1 to 9 post ip tumor-implantation measured on day 5 relative to control. The note with it: route intraperitoneal.
The subject of assay [6] is P388. Put plainly: Antitumor activity against mouse P388 cells allografted in mouse assessed as change in body weight at 0.39 mg/kg, ip qd administered from day 1 to 9 post intracerebral tumor-implantation measured on day 5 relative to control. The note with it: route intraperitoneal.
Assay [7] concerns P388. Put plainly: Antitumor activity against mouse P388 cells allografted in mouse assessed as change in body weight at 0.78 mg/kg, ip qd administered from day 1 to 9 post ip tumor-implantation measured on day 5 relative to control. Particulars: route intraperitoneal.
The test system of assay [8] is L1210. Briefly: Antitumor activity against mouse L1210 cells allografted in mouse assessed as change in body weight at 6.25 mg/kg, ip qd administered from day 1 to 9 post intracerebral tumor-implantation measured on day 5 relative to control. Particulars: route intraperitoneal.

Broadly, the T/C is the ratio of treated to control. For `CCOC(=O)NC1=C(N2CC2)C(=O)C(NC(=O)OCC)=C(N2CC2)C1=O` [DIAZIQUONE], the Activity in assay [1] is -0.1 g; in the assay on P388 [2], -0.4 g; in the assay on P388 [4] it was -2.8 g; in the assay on L1210 [5], -4.6 g; with P388 [6], -0.7 g; in the assay with P388 [7] it was -2.4 g. The Activity in the assay on L1210 [8] is -2.8 g. In addition, in assay [3], the T/C was found to be 130%.
